The values that follow are results of earlier work, collected in patent publication US10689462B2, “Therapeutic and imaging compositions and uses thereof” (priority 2013, dated 2020).

Series [1] relates to npc1^−/− mice. The conditions noted are these: subcutaneous injection, 4.0 mg/kg of body weight.
The conditions of series [2]: within 24 h.
The conditions of series [3]: room temperature.

In the case of hydroxypropyl-β-cyclodextrin [HP-β-CD], the “Effect on survival, hepatopathology and neuropathology” value in series [1] was “improvement in their survival, hepatopathology, and neuropathology”. Moreover, the “Fraction cleared from the bloodstream” value in series [2] is above 90%. Moreover, the Solubility in water in series [3] is 650 mg/mL.
